# Assay results as given in patent EP0516157A1, “Preparation of 6-0-alkylelsamicin A derivatives” (priority 1991, dated 1992).
# Where two headings read alike, the source gives them in different places.
# Columns and labels:
# [1] = tested on: murine melanoma B16-F10 cells; assay: In vitro cytotoxicity, neutral red staining after 72 hours; details: for Cytotoxicity IC50: 72 hours incubation
# Experimental: (§2) For in vitro cytotoxicity experiment, murine melanoma B16-F10 cells were grown and maintained in Eagle's minimum essential medium (Nissui), which contains kanamycin (60 µg/ml), supplemented with heat-inactivated fetal calf serum (10%) and nonessential amino acids (0.6%) at 37°C under a humidified atmosphere in a 5% CO₂ incubator. Exponentially growing B16-F10 cells were harvested, counted and suspended in the culture medium at the concentration of 2.0x10⁴ cells/ml. The cell suspension (180 µl) was planted into wells of a 96-well microtiter plate and incubated for 24 hours. Test compounds (20 µl) were added to the wells and the plates were further incubated for 72 hours. The cytotoxic activity was colorimetrically determined at 540 nm after staining viable cells with neutral red solution.
# [2] = tested on: lymphocytic leukemia P388; assay: In vivo antitumor activity against P388 leukemia in mice; details: for T/C % of MST: P388, female CDF1 mice, Q1Dx3 ip; for anti-P388 activity compared with elsamicin A / toxicity compared with elsamicin A: P388 system, in words
# Experimental: (§1) In vivo antitumor activity of the above fifteen derivatives was tested in the lymphocytic leukemia P388 and melanoma B16 systems. Female CDF₁ (for P388) and male BDF₁ (for B16) mice were inoculated by ip injection at 10⁶ P388 cells and 0.5 ml of a 10% B16 brei per mouse, respectively (day 0). […] The percent increase of median survival time (MST) of treated animals over that of untreated control animals was determined and reported as T/C %. Compounds showing T/C % values of 125 or greater are considered to have significant antitumor activity.
# melanoma B16 = assay: In vivo antitumor activity against B16 melanoma in mice; details: for No. of survivors/tested on day 50 / T/C % of MST: Q4Dx3 ip; for T/C % of MST: B16, male BDF1 mice
# Experimental: as §1
# [3] = tested on: murine melanoma B16-F10 cells
# Experimental: as §2
SMILES,Cytotoxicity IC50 [1],T/C % of MST ([2]; 0.1 mg/kg/day),T/C % of MST ([2]; 0.3 mg/kg/day),T/C % of MST ([2]; 1 mg/kg/day),T/C % of MST ([2]; 3 mg/kg/day),T/C % of MST ([2]; 10 mg/kg/day),T/C % of MST ([2]; 20 mg/kg/day),T/C % of MST ([2]; 40 mg/kg/day),anti-P388 activity compared with elsamicin A [2],toxicity compared with elsamicin A [2],"No. of survivors/tested on day 50 (melanoma B16; B16, 10 mg/kg/day)",T/C % of MST (melanoma B16; 0.1 mg/kg/day),T/C % of MST (melanoma B16; 0.3 mg/kg/day),T/C % of MST (melanoma B16; 1 mg/kg/day),T/C % of MST (melanoma B16; 3 mg/kg/day),T/C % of MST (melanoma B16; 10 mg/kg/day),"chemotherapeutic activity in the B16 system (melanoma B16; B16 system, in words)","cytotoxicity compared with the parent compound ([1]; in words, versus elsamicin A)",cytotoxicity compared with the parent compound [3],"No. of survivors/tested on day 50 (melanoma B16; B16, 3 mg/kg/day)"
"COc1c2cccc(OC3OC(C)C(O)C(C)(O)C3OC3OC(C)C(O)C(OC)C3N)c2c2oc(=O)c3c(C)ccc4oc(=O)c1c2c43 (centres unmarked) [Compound 7a, 6-O-Methylelsamicin A]",0.19 µg/mL,–,–,–,–,–,–,–,–,–,–,–,–,–,–,–,–,–,–,–
"CCOc1c2cccc(OC3OC(C)C(O)C(C)(O)C3OC3OC(C)C(O)C(OC)C3N)c2c2oc(=O)c3c(C)ccc4oc(=O)c1c2c43 (centres unmarked) [Compound 7b, 6-O-Ethylelsamicin A]",0.06 µg/mL,110%,125%,130%,150%,170%,170%,180%,as active as elsamicin A,seemed to be less toxic,(3/4),103%,113%,144%,178%,≧313%,excellent chemotherapeutic activity,approximately equipotent cytotoxicity to the parent compound,–,–
"CCCOc1c2cccc(OC3OC(C)C(O)C(C)(O)C3OC3OC(C)C(O)C(OC)C3N)c2c2oc(=O)c3c(C)ccc4oc(=O)c1c2c43 (centres unmarked) [Compound 7c, 6-O-n-Propylelsamicin A]",0.03 µg/mL,105%,129%,133%,152%,152%,155%,159%,as active as elsamicin A,seemed to be less toxic,–,–,–,–,–,–,–,–,approximately equipotent cytotoxicity to the parent compound,–
"COC1C(N)C(OC2C(Oc3cccc4c(OC(C)C)c5c(=O)oc6ccc(C)c7c(=O)oc(c34)c5c67)OC(C)C(O)C2(C)O)OC(C)C1O (centres unmarked) [Compound 7d, 6-O-Isopropylelsamicin A]",0.49 µg/mL,95%,119%,124%,133%,148%,–,–,–,–,–,–,–,–,–,–,–,–,–,–
"CCCCOc1c2cccc(OC3OC(C)C(O)C(C)(O)C3OC3OC(C)C(O)C(OC)C3N)c2c2oc(=O)c3c(C)ccc4oc(=O)c1c2c43 (centres unmarked) [Compound 7e, 6-O-n-Butylelsamicin A]",0.03 µg/mL,110%,124%,133%,152%,162%,141%,164%,as active as elsamicin A,seemed to be less toxic,–,–,123%,127%,160%,213%,–,–,approximately equipotent cytotoxicity to the parent compound,–
"CCCCCCOc1c2cccc(OC3OC(C)C(O)C(C)(O)C3OC3OC(C)C(O)C(OC)C3N)c2c2oc(=O)c3c(C)ccc4oc(=O)c1c2c43 (centres unmarked) [Compound 7f, 6-O-n-Hexylelsamicin A]",0.11 µg/mL,100%,105%,120%,130%,140%,–,–,–,–,–,107%,111%,129%,132%,146%,–,–,–,–
"CCCCCCCCCCOc1c2cccc(OC3OC(C)C(O)C(C)(O)C3OC3OC(C)C(O)C(OC)C3N)c2c2oc(=O)c3c(C)ccc4oc(=O)c1c2c43 (centres unmarked) [Compound 7g, 6-O-n-Decylelsamicin A]",2.5 µg/mL,–,115%,105%,115%,100%,–,–,–,–,–,–,107%,126%,153%,183%,–,–,–,–
"COC1C(N)C(OC2C(Oc3cccc4c(OCCCN5C(=O)c6ccccc6C5=O)c5c(=O)oc6ccc(C)c7c(=O)oc(c34)c5c67)OC(C)C(O)C2(C)O)OC(C)C1O (centres unmarked) [Compound 7h, 6-O-(3-phthalimidopropyl)elsamicin A]",0.71 µg/mL,105%,105%,120%,125%,140%,–,–,–,–,–,–,–,–,–,–,–,–,–,–
"COC1C(N)C(OC2C(Oc3cccc4c(OCCCN)c5c(=O)oc6ccc(C)c7c(=O)oc(c34)c5c67)OC(C)C(O)C2(C)O)OC(C)C1O (centres unmarked) [Compound 7i, 6-O-(3-Aminopropyl)elsamicin A]",2.3 µg/mL,–,105%,110%,110%,130%,–,–,–,–,–,–,–,–,–,–,–,–,–,–
"COc1c2cccc(OC3OC(C)C4OC(C)(C)OC4(C)C3OC3OC(C)C(O)C(OC)C3N)c2c2oc(=O)c3c(C)ccc4oc(=O)c1c2c43 (centres unmarked) [Compound 8a, 3',4'-O-Isopropylidene-6-O-methylelsamicin A]",0.08 µg/mL,–,–,–,–,–,–,–,–,–,–,–,–,–,–,–,–,–,–,–
"CCOc1c2cccc(OC3OC(C)C4OC(C)(C)OC4(C)C3OC3OC(C)C(O)C(OC)C3N)c2c2oc(=O)c3c(C)ccc4oc(=O)c1c2c43 (centres unmarked) [Compound 8b, 6-O-Ethyl-3'4'-O-isopropylideneelsamicin A]",0.06 µg/mL,110%,125%,125%,140%,190%,200%,–,as active as elsamicin A,seemed to be less toxic,–,97%,106%,119%,153%,216%,–,–,approximately equipotent cytotoxicity to the parent compound,–
"CCCCCCOc1c2cccc(OC3OC(C)C4OC(C)(C)OC4(C)C3OC3OC(C)C(O)C(OC)C3N)c2c2oc(=O)c3c(C)ccc4oc(=O)c1c2c43 (centres unmarked) [Compound 8f, 6-O-n-Hexyl-3'4'-O-isopropylideneelsamicin A]",0.9 µg/mL,110%,110%,110%,115%,120%,–,–,–,–,–,–,–,–,–,–,–,–,–,–
"CCCCCCCCCCOc1c2cccc(OC3OC(C)C4OC(C)(C)OC4(C)C3OC3OC(C)C(O)C(OC)C3N)c2c2oc(=O)c3c(C)ccc4oc(=O)c1c2c43 (centres unmarked) [Compound 8g, 6-O-n-Decyl-3'4'-O-isopropylideneelsamicin A]",2.9 µg/mL,–,115%,105%,115%,100%,–,–,–,–,–,–,–,–,–,–,–,–,–,–
"COC1C(N)C(OC2C(Oc3cccc4c(OCCCN5C(=O)c6ccccc6C5=O)c5c(=O)oc6ccc(C)c7c(=O)oc(c34)c5c67)OC(C)C3OC(C)(C)OC32C)OC(C)C1O (centres unmarked) [Compound 8h, 3'4'-O-Isopropylidene-6-O-(3-phthalimidopropyl)elsamicin A]",0.4 µg/mL,100%,110%,110%,120%,130%,–,–,–,–,–,–,–,–,–,–,–,–,–,–
"COC1C(N)C(OC2C(Oc3cccc4c(OCCCN)c5c(=O)oc6ccc(C)c7c(=O)oc(c34)c5c67)OC(C)C3OC(C)(C)OC32C)OC(C)C1O (centres unmarked) [Compound 8i, 6-O-(3-Aminopropyl)-3',4'-isopropylideneelsamicin A]",1.8 µg/mL,–,105%,110%,120%,135%,–,–,–,–,–,–,–,–,–,–,–,–,–,–
"COC1C(N)C(OC2C(Oc3cccc4c(O)c5c(=O)oc6ccc(C)c7c(=O)oc(c34)c5c67)OC(C)C(O)C2(C)O)OC(C)C1O (centres unmarked) [Elsamicin A (1), Elsamicin A]",0.05 µg/mL,124%,138%,155%,180%,206%,Tox,–,–,–,9/24,120%,139%,178%,≥ 216%,≥ 305%,–,–,–,2/24
